Where a name gives a salt, the structure may show the parent alone.

Sequence of GCN2 (Q9P2K8 whole entry, species assumed): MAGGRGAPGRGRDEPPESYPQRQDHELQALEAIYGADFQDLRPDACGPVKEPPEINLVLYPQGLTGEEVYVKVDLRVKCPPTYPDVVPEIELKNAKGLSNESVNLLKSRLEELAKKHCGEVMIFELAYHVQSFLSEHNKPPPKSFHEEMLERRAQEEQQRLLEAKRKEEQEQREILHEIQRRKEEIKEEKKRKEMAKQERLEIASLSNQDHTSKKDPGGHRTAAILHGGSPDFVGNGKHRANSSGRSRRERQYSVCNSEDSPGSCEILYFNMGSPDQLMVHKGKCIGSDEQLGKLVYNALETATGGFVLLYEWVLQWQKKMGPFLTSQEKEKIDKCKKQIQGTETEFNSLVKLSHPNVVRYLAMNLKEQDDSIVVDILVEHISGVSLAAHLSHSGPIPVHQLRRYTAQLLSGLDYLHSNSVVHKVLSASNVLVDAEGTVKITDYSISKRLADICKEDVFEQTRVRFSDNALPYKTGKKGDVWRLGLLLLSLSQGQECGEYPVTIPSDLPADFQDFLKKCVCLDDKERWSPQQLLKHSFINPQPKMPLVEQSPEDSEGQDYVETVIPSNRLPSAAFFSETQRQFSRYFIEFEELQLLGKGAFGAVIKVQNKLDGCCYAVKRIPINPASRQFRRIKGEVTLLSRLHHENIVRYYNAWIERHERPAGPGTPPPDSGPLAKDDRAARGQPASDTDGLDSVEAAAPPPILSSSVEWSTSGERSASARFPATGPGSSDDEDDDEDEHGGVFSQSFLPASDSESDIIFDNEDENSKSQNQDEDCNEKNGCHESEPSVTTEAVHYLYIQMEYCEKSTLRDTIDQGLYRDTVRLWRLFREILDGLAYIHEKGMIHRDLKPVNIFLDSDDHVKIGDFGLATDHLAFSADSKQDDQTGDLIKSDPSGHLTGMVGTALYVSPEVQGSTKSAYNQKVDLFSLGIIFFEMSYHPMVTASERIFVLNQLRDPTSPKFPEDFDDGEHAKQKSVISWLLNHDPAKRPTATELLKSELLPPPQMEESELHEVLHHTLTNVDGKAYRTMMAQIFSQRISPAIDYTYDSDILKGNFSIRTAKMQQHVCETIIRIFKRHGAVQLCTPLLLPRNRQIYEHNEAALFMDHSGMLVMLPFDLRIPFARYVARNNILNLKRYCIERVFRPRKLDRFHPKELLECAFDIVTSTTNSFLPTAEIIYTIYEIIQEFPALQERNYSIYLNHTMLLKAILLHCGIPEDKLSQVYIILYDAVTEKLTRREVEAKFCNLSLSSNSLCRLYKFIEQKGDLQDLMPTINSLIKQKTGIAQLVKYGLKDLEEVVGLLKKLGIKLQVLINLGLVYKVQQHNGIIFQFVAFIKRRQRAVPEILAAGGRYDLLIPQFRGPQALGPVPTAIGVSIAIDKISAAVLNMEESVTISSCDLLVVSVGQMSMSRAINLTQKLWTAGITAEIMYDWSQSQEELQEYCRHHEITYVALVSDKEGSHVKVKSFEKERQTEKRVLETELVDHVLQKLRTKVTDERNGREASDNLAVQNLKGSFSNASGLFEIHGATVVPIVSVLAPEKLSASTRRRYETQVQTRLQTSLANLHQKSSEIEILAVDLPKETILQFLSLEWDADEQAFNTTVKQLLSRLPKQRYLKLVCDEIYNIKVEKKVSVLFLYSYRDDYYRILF

The target in this experiment is GCN2 (Homo sapiens, UniProt Q9P2K8). As to the kind of experiment: GCN2 enzyme assay (TR-FRET Lanthascreen, GFP-eIF2alpha phosphorylation). Format: biochemical. Particulars: 10 μM ATP, 80 nM GFP-eIF2a, 30 nM GCN2. The text has this:
GCN2: Assay Principle & Conditions
This assay can quantificate the activity of the serin kinase GCN2 (general control non-derepressible-2).
This kinase is involved in the stress metabolism of cells. It is activated upon starvation (amino acid depletion). Its natural substrate is eIF2a (eukaryotic initiation factor 2 alpha subunit), a translation factor, which gets activated (phosphorylated) by GCN2 in case of an amino acid bottleneck in the cells. This in turn leads to a halt of the protein synthesis. Inhibition of GCN2 results in stopping this mechanism: The cell can not stop protein production upon “starvation” stress.
The assay is run in two steps: the enzymatic reaction and the detection step. In the first step GCN2 is incubated with 10 μM ATP and 80 nM of the GFP-labelled substrate eIF2alpha at room temperature.
The enzymatic reaction is stopped by addition of EDTA. The amount of phosphorylated eIF2alpha is determined by TR-FRET (Lanthascreen): A complex is formed consisting of antibody and GFP labelled phospho-eIF2a, which allows a FRET upon exitation at 340 nm.
Final Concentrations in the Enzymatic Reaction
In general terms: In TR-FRET formats the signal depends on donor and acceptor labels being close together.
One may read the IC50 as the concentration at which inhibition is half-maximal. A higher IC50 goes with lower potency. `COc1ccc(-n2nnc3cnc(N[C@H]4CC[C@H](S(C)(=O)=O)C4)nc32)cc1` (relative stereo) [A263, ((trans)-3-methanesulfonyl-cyclopentyl)-[3-(4-methoxy-phenyl)-3H-[1,2,3]triazolo[4,5-d]pyrimidin-5-yl]-amine] had an IC50 of less than 1000 nM.
In the case of `NC(=O)CCn1cc(-c2ccc(-n3nnc4cnc(N[C@H]5CC[C@H](O)C5)nc43)cc2)cn1` (relative stereo) [A268, 3-(4-{4-[5-(trans-3-hydroxy-cyclopentylamino)-[1,2,3]triazolo[4,5-d]pyrimidin-3-yl]-phenyl}-pyrazol-1-yl)-propionamide] it was less than 1000 nM; in that of `COc1ccc(-n2nnc3cnc(N[C@@H]4CC[C@H](C#N)C4)nc32)cc1` (relative stereo) [A275, cis-3-[3-(4-Methoxy-phenyl)-3H-[1,2,3]triazolo[4,5-d]pyrimidin-5-ylamino]-cyclopentanecarbonitrile], less than 1000 nM; in that of `CCOc1ccc(-n2nnc3cnc(N[C@H]4CC[C@H](n5ncccc5=O)C4)nc32)cc1` (relative stereo) [A287, 2-{(trans)-3-[3-(4-ethoxy-phenyl)-3H-[1,2,3]triazolo[4,5-d]-pyrimidin-5-ylamino]-cyclopentyl}-2H-pyridazin-3-one], less than 1000 nM.
In the case of `CC(C)(O)c1ccc(-n2nnc3cnc(N[C@@H]4CC[C@@H](O)C4)nc32)cc1` (relative stereo) [A290, (trans)-3-{3-[4-(1-Hydroxy-1-methyl-ethyl)-phenyl]-3H-[1,2,3]triazolo[4,5-d]pyrimidin-5-ylamino}-cyclopentanol], the IC50 was less than 1000 nM.
In the case of `COc1ccc(-n2nnc3cnc(NC(C)C)nc32)cc1` [A2, Isopropyl-[3-(4-methoxy-phenyl)-3H-[1,2,3]triazolo[4,5-d]pyrimidin-5-yl]-amine] it was less than 1000 nM; in that of `COc1ccc(-n2nnc3cnc(NC4CCOCC4)nc32)cc1` [A3, [3-(4-methoxy-phenyl)-3H-[1,2,3]triazolo[4,5-d]pyrimidin-5-yl]-(tetrahydro-pyran-4-yl)-amine], 1000 to 5000 nM; in that of `COc1ccc(-n2nnc3cnc(N[C@H]4CC[C@H](O)CC4)nc32)cc1` [A6, trans-4-[3-(4-methoxy-phenyl)-3H-[1,2,3]triazolo[4,5-d]pyrimidin-5-ylamino]-cyclohexanol], less than 1000 nM.
In turn, `COc1ccc(-n2nnc3cnc(NC(C)(C)C)nc32)cc1` [A7, tert-butyl-[3-(4-methoxy-phenyl)-3H-[1,2,3]triazolo[4,5-d]pyrimidin-5-yl]-amine] returned an IC50 of less than 1000 nM.
In the case of `COc1ccc(-n2nnc3cnc(NC4CCS(=O)(=O)C4)nc32)cc1` (stereo not drawn) [A8, N-(1,1-dioxothiolan-3-yl)-3-(4-methoxyphenyl)triazolo[4,5-d]pyrimidin-5-amine] it was less than 1000 nM.
Under `COc1ccc(-n2nnc3cnc(NC4CCCC4)nc32)cc1` [A12, cyclopentyl-[3-(4-methoxy-phenyl)-3H-[1,2,3]triazolo[4,5-d]pyrimidin-5-yl]-amine] stands less than 1000 nM.
In the case of `COc1ccc(-n2nnc3cnc(NCCCN4CCN(C)CC4)nc32)cc1` [A13, [3-(4-methoxy-phenyl)-3H-[1,2,3]triazolo[4,5-d]pyrimidin-5-yl]-[3-(4-methyl-piperazin-1-yl)-propyl]-amine] it was 1000 to 5000 nM; in that of `CNc1ncc2nnn(-c3ccc(OC)cc3)c2n1` [A14, [3-(4-methoxy-phenyl)-3H-[1,2,3]triazolo[4,5-d]pyrimidin-5-yl]-methyl-amine], 1000 to 5000 nM.
As to `COc1ccc(-n2nnc3cnc(NC4CC(C)(C)N(C)C(C)(C)C4)nc32)cc1` [A15, [3-(4-methoxy-phenyl)-3H-[1,2,3]triazolo[4,5-d]pyrimidin-5-yl]-(1,2,2,6,6-pentamethyl-piperidin-4-yl)-amine], the IC50 fell in the range of 5000 to 10000 nM.
The compound `CCNc1ncc2nnn(-c3ccc(OC)cc3)c2n1` [A16, ethyl-[3-(4-methoxy-phenyl)-3H-[1,2,3]triazolo[4,5-d]pyrimidin-5-yl]-amine] registered a half-maximal inhibitory concentration (IC50) of less than 1000 nM.
In the case of `COc1ccc(-n2nnc3cnc(NC4CC(C)(C)NC(C)(C)C4)nc32)cc1` [A17, [3-(4-methoxy-phenyl)-3H-[1,2,3]triazolo[4,5-d]pyrimidin-5-yl]-(2,2,6,6-tetramethyl-piperidin-4-yl)-amine] it was 5000 to 10000 nM; in that of `COc1ccc(-n2nnc3cnc(NC4CCN(C)CC4)nc32)cc1` [A18, [3-(4-methoxy-phenyl)-3H-[1,2,3]triazolo[4,5-d]pyrimidin-5-yl]-(1-methyl-piperidin-4-yl)-amine], 1000 to 5000 nM.
Compound `COc1ccc(-n2nnc3cnc(NC4C5CN(C)CC54)nc32)cc1` (stereo not drawn) [A19, [3-(4-methoxy-phenyl)-3H-[1,2,3]triazolo[4,5-d]pyrimidin-5-yl]-(3-methyl-3-aza-bicyclo[3.1.0]hex-6-yl)-amine] gave an IC50 of 5000 to 10000 nM.
Under `COc1ccc(-n2nnc3cnc(NC4CC(=O)N(C)C4)nc32)cc1` (stereo not drawn) [A20, 4-[3-(4-methoxy-phenyl)-3H-[1,2,3]triazolo[4,5-d]pyrimidin-5-ylamino]-1-methyl-pyrrolidin-2-one] stands 1000 to 5000 nM; under `COc1ccc(-n2nnc3cnc(NC4CCC4)nc32)cc1` [A21, cyclobutyl-[3-(4-methoxy-phenyl)-3H-[1,2,3]triazolo[4,5-d]pyrimidin-5-yl]-amine], less than 1000 nM; under `COc1ccc(-n2nnc3cnc(NC4CCc5[nH]ncc5C4)nc32)cc1` (stereo not drawn) [A23, [3-(4-methoxy-phenyl)-3H-[1,2,3]triazolo[4,5-d]pyrimidin-5-yl]-(4,5,6,7-tetrahydro-1H-indazol-5-yl)-amine], less than 1000 nM.
In the case of `COc1ccc(-n2nnc3cnc(N[C@H]4C[C@H](O)C4)nc32)cc1` [A24, trans-3-[3-(4-methoxy-phenyl)-3H-[1,2,3]triazolo[4,5-d]pyrimidin-5-ylamino]-cyclobutanol] it was less than 1000 nM.
Under `COc1ccc(-n2nnc3cnc(N[C@H]4C[C@@H](O)C4)nc32)cc1` [A25, cis-3-[3-(4-methoxy-phenyl)-3H-[1,2,3]triazolo[4,5-d]pyrimidin-5-ylamino]-cyclobutanol] stands less than 1000 nM.
As to `COc1ccc(-n2nnc3cnc(N[C@H]4CC[C@@H](O)CC4)nc32)cc1` [A26, cis-4-[3-(4-methoxy-phenyl)-3H-[1,2,3]triazolo[4,5-d]pyrimidin-5-ylamino]-cyclohexanol], the IC50 was less than 1000 nM.
In the case of `COc1ccc(-n2nnc3cnc(N[C@H]4CCOC4)nc32)cc1` [A28, [3-(4-methoxy-phenyl)-3H-[1,2,3]triazolo[4,5-d]pyrimidin-5-yl]-(S)-tetrahydrofuran-3-yl-amine] it was less than 1000 nM; in that of `COc1ccc(-n2nnc3cnc(N[C@H]4C[C@@H](NC(=O)OC(C)(C)C)C4)nc32)cc1` [A30, {cis-3-[3-(4-methoxy-phenyl)-3H-[1,2,3]triazolo[4,5-d]pyrimidin-5-ylamino]-cyclobutyl}-carbamic acid tert-butyl ester], less than 1000 nM.
The compound `COc1ccc(-n2nnc3cnc(N[C@H]4C[C@@H](N)C4)nc32)cc1` [A31, cis-N-[3-(4-methoxy-phenyl)-3H-[1,2,3]triazolo[4,5-d]pyrimidin-5-yl]-cyclobutane-1,3-diamine hydrochloride] came in with an IC50 of 1000 to 5000 nM.

For the origin of these results see patent US9855268B2, “Triazolo[4,5-d]pyrimidine derivatives” (Merck Patent GmbH, priority 2013, dated 2018).
